Measurements from patent publication US12097252B2, “Formulation of a peptide vaccine” (priority 2016, dated 2024).
Marks after values point to notes of the source that are not given here.

Tests used:
[1] = tested on: TC-1 tumor cells, expressing the oncogenic E6 and E7 proteins of HPV16; assay: Therapeutic vaccination of mice carrying TC-1 tumors; assay type: in vivo, C57BL/6 mice
Protocol: The following groups of mice were included in the study: • Group 1: (n=5) 40% v/v DMSO/WFI emulsified 1:1 with Montanide ISA VG51. • Group 2: (n=5) Reconstitution composition (750 μL 0.1M Citric acid in water, 62.5 μL Propylene Glycol, 125 μL Ethanol and 62.5 μL Cremophor EL per mL) emulsified 1:1 with Montanide ISA VG51. • Group 3: (n=10) SLP […] and 20 μg CpG ODN1826/mouse dissolved in 40% v/v DMSO/WFI, emulsified 1:1 with Montanide ISA VG51. • Group 4: (n=10) SLP […] (SEQ ID NO: 6) and 20 μg CpG ODN1826/mouse dissolved in Reconstitution composition (750 μL 0.1M Citric acid in water, 62.5 μL Propylene Glycol, 125 μL Ethanol and 62.5 μL Cremophor EL per mL), emulsified 1:1 with Montanide ISA VG51.
For mice in Group 1, a solution was prepared by admixing and subsequently swirling 400 μL DMSO and 600 μL WFI. The solution was taken up in a 2 mL Luer-Lock syringe (Syringe A). In another 2 mL Luer-Lock syringe (Syringe B) 1 mL of Montanide ISA VG51 was taken up, after which both syringes were connected to a T-connector. An emulsion was generated by mixing the contents back and forth extensively. After mixing, the syringes were disconnected and a 25 G needle was placed on the syringe containing the emulsion. Per mouse, 100 μL was injected in the left flank subcutaneously.
The vaccine prepared for Group 2 was prepared in an identical manner, only differing by the use of reconstitution composition (750 μL 0.1M citric acid in water and 250 μL PG/EtOH/Cremophor EL 1:2:1, i.e. 0.075M citric acid, 6.25% v/v propylene glycol CAS no. 57-55-6, 12.5% v/v ethanol and 6.25% v/v polyoxyethyleneglyceroltriricinoleate 35 CAS no. 61791-12-6 in water) instead of DMSO and WFI. […]
TC-1 tumor cells, expressing the oncogenic E6 and E7 proteins of HPV16 were cultured in complete IMDM culture medium, supplemented with 400 μg/ml geneticin. […] The tumor size of all mice was monitored at least twice a week using a caliper up to 75 days after tumor challenge.

[2] = tested on: RAHYNIVTF-specific CD8^+ T cells; assay: Strength of T cell response in blood, D^b-[…] tetramer flow cytometry; assay type: in vivo, C57BL/6 mice; details: for % Tm+ of CD8: emulsified 1:1 with Montanide ISA VG51, s.c.; for % CD62L+ KLRG1+ (% of TM+ CD8 T cells) / % CD62L− KLRG1+ (% of TM+ CD8 T cells): Montanide 1:1
Protocol: On day 9 after vaccination, blood was drawn from the tail vein of all mice. Blood samples were transferred to a 96-wells culture plate and centrifuged for 5 minutes at 1600 rpm. Erythrocytes were lysed by suspending blood cell pellets in Lysis buffer until orange coloration was observed. Subsequently, cells were washed in FACS buffer and stained with the fluorescent antibodies, the D^b-[…]-APC tetramer and 7-AAD mentioned in the Materials section above. After 30 minutes of incubation on ice, cells were washed and analyzed on a BD LSRII flow cytometer in the Leiden University Medical Center (Dept. of Rheumatology).
A study by Van Duikeren et al. (J Immunol, 2012; 189(7): 3397-403) aimed to identify parameters that correlated with the induction of an effective antitumor response. By identifying such biomarkers, different vaccine compositions can be tested in non-tumor bearing mice with prognostic value in tumor models. The authors found a correlation between the expression of KLRG1 and absence of CD62L expression on the one hand and effective antitumor immune responses on the other hand. We determined the percentages of KLRG1- and CD62L-expressing D^b-[…]^+ CD8^+ T cells in the blood of vaccinated mice on day 9 after vaccination using flow cytometry. No difference in percentage of […]-specific KLRG1^+ CD62L^− CD8^+ T cells is observed between groups 3 and 4. Not enough […]-specific CD8+ T cells were detected to reliably study the expression of KLRG1 and CD62L in the groups of mice vaccinated with vehicle only (Group 1 and 2). See Table 10 for the average percentages and standard deviations per group.

[3] = Group 3 average: SLP SEQ ID NO: 6 + CpG ODN1826 in 40% v/v DMSO/WFI, blood day 9 after vaccination
[4] = Group 4 average: SLP SEQ ID NO: 6 + CpG ODN1826 in Reconstitution composition, blood day 9 after vaccination

Sequence: GQAEPDRAHYNIVTFCCKCDSTLRLCVQSTHVDIR [SLP 6]
- outgrowth of TC-1 tumors ([1]; SLP 6 and CpG1826 in DMSO/WFI or Reconstitution composition, Montanide emulsion, s.c. day 8, monitored up to 75 days): Tumor regression is observed in all mice
- overall tumor outgrowth, comparison of formulations ([1]; SLP 6 dissolved in DMSO/WFI vs Reconstitution composition): No differences were observed in overall tumor outgrowth
- Kaplan-Meier survival ([1]; SLP-vaccinated groups: DMSO/WFI vs Reconstitution composition): no differences between the vaccinated groups
- % Tm+ of CD8 ([2]; Group 3 average: SLP SEQ ID NO: 6 + 20 μg CpG ODN1826/mouse in 40% v/v DMSO/WFI, blood day 9 after vaccination): 1.4%
- % CD62L+ KLRG1+ (% of TM+ CD8 T cells) [2, 3]: 4.0%
- % CD62L− KLRG1+ (% of TM+ CD8 T cells) [2, 3]: 51.9%
- % Tm+ of CD8 ([2]; Group 4 average: SLP SEQ ID NO: 6 + 20 μg CpG ODN1826/mouse in Reconstitution composition (0.1M citric acid/PG/EtOH/Cremophor EL), blood day 9, p < 0.05 vs group 3): 4.8* %
- % CD62L+ KLRG1+ (% of TM+ CD8 T cells) [2, 4]: 4.0%
- % CD62L− KLRG1+ (% of TM+ CD8 T cells) [2, 4]: 52.2%
- percentage of induced D^b-RAYNIVTF (tetramer) positive CD8^+ T cells ([2]; group 4 (Rec. composition+SLP) vs group 3 (DMSO+SLP), p=0.022): enhanced tetramer-positive CD8^+ T cell response
